Legend:
Format in all cases: in vivo
[1] = system: Two-Spotted Spider Mite (Tetranvchus urticae); assay: Test against two-spotted spider mite, spray on kidney bean; conditions: active compound concentration 100 ppm; adult mites; after 7 days
Description: (§1) Unless nomentioned otherwise, the test solutions were prepared as follows:
(§2) Containing as solvent: Dimethylformamide, 3 parts by weight; and as emulsifier: Polyoxyethylene alkyl phenyl ether, 1 part by weight
(§3) To prepare the test solution, 1 part by weight of an active compound is mixed with the above-mentioned amount of solvent containing the above-mentioned amount of emulsifier, and the mixture is diluted with water to the desired concentration.
50 to 100 adult two-spotted spider mites were inoculated onto the leaves of kidney beans at the two-true leaf stage, which plant had been cultivated in a pot having a diameter of 6 cm. After one day, test solution at the appropriate concentration was sprayed thereon in a sufficient amount using a spray gun. After the spraying, the plant pot was placed inside a greenhouse, and after 7 days, the acaricidal activity was calculated. An acaricidal activity of 100% means that all mites were killed, whereas an acaricidal activity of 0% means that no mite was killed.

[2] = system: Strain of Green Peach Aphid (Mvzus persicas) which is Resistant to Organic Phosphorus and Carbamate Agents; assay: Test against resistant green peach aphid, spray on egg plant; conditions: active compound concentration 500 ppm; after 7 days
Description: as §1, §2, §3
About 30 to 50 of the resistant green peach aphids were inoculated per seedling, onto the leaves of egg plant at the two-true leaf stage, which plant had been cultivated in a pot having a diameter of 6 cm. One day after the inoculation, the test solution at the appropriate concentration was sprayed thereon in a sufficient amount using a spray gun. After the spraying, the plant pot was placed in a greenhouse at 28° C., and after 7 days, the insecticidal activity was calculated. An insecticidal activity of 100% means that all aphids were killed, whereas an insecticidal activity of […] means that no aphid was killed. The test was repeated two times.

[3] = system: Tobacco Cutworm (Spodoptera litura) Larvae; assay: Test against tobacco cutworm (Spodoptera litura) larvae, leaf dip; conditions: active compound concentration 100 ppm; third-instar larvae; after 7 days
Description: as §1, §2, §3
The leaves of sweet potato were immersed in the test solution at the appropriate concentration, and the leaves were dried in air. The leaves were then placed in a petri dish having a diameter of 9 cm, and ten third-instar larvae of tobacco cutworm were released therein. The petri dish was placed in a temperature chamber at 25° C. After 2 days and 4 days sweet potato leaves were additionally added. After 7 days, the number of dead larvae was counted, to calculate the insecticidal activity. An insecticidal activity of 100% means that all larvae were killed, whereas an insecticidal activity of 0% means that no larva was killed. In the current test, the results of two petri dishes for each partition were averaged.

[4] = system: Cucurbit Leaf Beetle (Aulacophora femoralis); assay: Test against cucurbit leaf beetle, cucumber leaf dip; conditions: active compound concentration 100 ppm; second-instar larvae; after 7 days
Description: as §1, §2, §3
Cucumber leaves were immersed in the test solution at the appropriate concentration, and the leaves were dried in air. The leaves were then placed in a plastic cup containing aseptically sterilized black soil, and five second-instar larvae of cucurbit leaf beetle were released therein. After 7 days, the number of dead larvae was counted, and thus the insecticidal activity was calculated. An insecticidal activity of 100% means that all beetles were killed, whereas an insecticidal activity of 0% means that no beetle was killed.

CSCC(=O)NCc1ccc(C2=NCC(c3cc(Cl)c(Cl)c(Cl)c3)(C(F)(F)F)C2)cc1C(F)(F)F (racemic) [2-209]
100%: acaricidal activity [1] | insecticidal activity [2] | insecticidal activity [3] | insecticidal activity [4]

O=C(CC(F)(F)F)NCc1ccc(C2=NCC(c3cc(Cl)cc(Cl)c3)(C(F)(F)F)C2)cc1C(F)(F)F (racemic) [2-211]
100%: acaricidal activity [1] | insecticidal activity [2] | insecticidal activity [4]

O=C(NCc1ccc(C2=NCC(c3cc(Cl)cc(Cl)c3)(C(F)(F)F)C2)cc1C(F)(F)F)C1CC1 (racemic) [2-212]
100%: acaricidal activity [1] | insecticidal activity [2] | insecticidal activity [4]

N#Cc1cc(C2=NCC(c3cc(C(F)(F)F)cc(C(F)(F)F)c3)(C(F)(F)F)C2)ccc1-n1cncn1 (centres unmarked) [1-72]
100%: acaricidal activity [1] | insecticidal activity [2] | insecticidal activity [3] | insecticidal activity [4]

N#Cc1cc(C2=NCC(c3cc(Br)cc(Br)c3)(C(F)(F)F)C2)ccc1-n1cncn1 (centres unmarked) [1-94]
100%: acaricidal activity [1] | insecticidal activity [2] | insecticidal activity [3] | insecticidal activity [4]

N#Cc1cc(C2=NCC(c3cc(Cl)cc(C(F)(F)F)c3)(C(F)(F)F)C2)ccc1-n1cncn1 (centres unmarked) [1-95]
100%: acaricidal activity [1] | insecticidal activity [2] | insecticidal activity [3] | insecticidal activity [4]

CCC(=O)NCc1ccc(C2=NCC(c3cc(Cl)cc(Cl)c3)(C(F)(F)F)C2)cc1Br (centres unmarked) [2-19]
100%: insecticidal activity [3] | insecticidal activity [4]

O=C(NCc1ccc(C2=NCC(c3cc(Cl)cc(Cl)c3)(C(F)(F)F)C2)cc1Br)C1CC1 (centres unmarked) [2-153]
100%: insecticidal activity [3] | insecticidal activity [4]

O=C(CC(F)(F)F)NCc1ccc(C2=NCC(c3cc(Cl)cc(Cl)c3)(C(F)(F)F)C2)cc1Br (centres unmarked) [2-154]
100%: acaricidal activity [1] | insecticidal activity [3] | insecticidal activity [4]

CC(=O)NCc1ccc(C2=NCC(c3cc(Cl)c(Cl)c(Cl)c3)(C(F)(F)F)C2)cc1Cl (centres unmarked) [2-156]
100%: acaricidal activity [1] | insecticidal activity [2] | insecticidal activity [3] | insecticidal activity [4]

CCC(=O)NCc1ccc(C2=NCC(c3cc(Cl)c(Cl)c(Cl)c3)(C(F)(F)F)C2)cc1Cl (centres unmarked) [2-157]
100%: acaricidal activity [1] | insecticidal activity [2] | insecticidal activity [3] | insecticidal activity [4]

O=C(NCc1ccc(C2=NCC(c3cc(Cl)c(Cl)c(Cl)c3)(C(F)(F)F)C2)cc1Cl)C1CC1 (centres unmarked) [2-158]
100%: acaricidal activity [1] | insecticidal activity [2] | insecticidal activity [3] | insecticidal activity [4]

O=C(CC(F)(F)F)NCc1ccc(C2=NCC(c3cc(Cl)c(Cl)c(Cl)c3)(C(F)(F)F)C2)cc1Cl (centres unmarked) [2-159]
100%: acaricidal activity [1] | insecticidal activity [2] | insecticidal activity [3] | insecticidal activity [4]

CC(=O)NCc1ccc(C2=NCC(c3cc(Cl)cc(Cl)c3)(C(F)(F)F)C2)cc1C(F)(F)F (centres unmarked) [2-160]
100%: acaricidal activity [1] | insecticidal activity [2] | insecticidal activity [3] | insecticidal activity [4]

CC(=O)NCc1ccc(C2=NCC(c3cc(Cl)c(Cl)c(Cl)c3)(C(F)(F)F)C2)cc1C(F)(F)F (centres unmarked) [2-161]
100%: acaricidal activity [1] | insecticidal activity [2] | insecticidal activity [3] | insecticidal activity [4]

CCC(=O)NCc1ccc(C2=NCC(c3cc(Cl)c(Cl)c(Cl)c3)(C(F)(F)F)C2)cc1C(F)(F)F (centres unmarked) [2-162]
100%: acaricidal activity [1] | insecticidal activity [2] | insecticidal activity [3] | insecticidal activity [4]

O=C(NCc1ccc(C2=NCC(c3cc(Cl)c(Cl)c(Cl)c3)(C(F)(F)F)C2)cc1C(F)(F)F)C1CC1 (centres unmarked) [2-163]
100%: acaricidal activity [1] | insecticidal activity [2] | insecticidal activity [3] | insecticidal activity [4]

O=C(CC(F)(F)F)NCc1ccc(C2=NCC(c3cc(Cl)c(Cl)c(Cl)c3)(C(F)(F)F)C2)cc1C(F)(F)F (centres unmarked) [2-164]
100%: acaricidal activity [1] | insecticidal activity [2] | insecticidal activity [3] | insecticidal activity [4]

CC(=O)NCc1ccc(C2=NCC(c3cc(C(F)(F)F)cc(C(F)(F)F)c3)(C(F)(F)F)C2)cc1C(F)(F)F (centres unmarked) [2-165]
100%: acaricidal activity [1] | insecticidal activity [2] | insecticidal activity [3] | insecticidal activity [4]

CCC(=O)NCc1ccc(C2=NCC(c3cc(C(F)(F)F)cc(C(F)(F)F)c3)(C(F)(F)F)C2)cc1C(F)(F)F (centres unmarked) [2-166]
100%: acaricidal activity [1] | insecticidal activity [2] | insecticidal activity [3] | insecticidal activity [4]

O=C(NCc1ccc(C2=NCC(c3cc(C(F)(F)F)cc(C(F)(F)F)c3)(C(F)(F)F)C2)cc1C(F)(F)F)C1CC1 (centres unmarked) [2-167]
100%: acaricidal activity [1] | insecticidal activity [2] | insecticidal activity [3] | insecticidal activity [4]

O=C(CC(F)(F)F)NCc1ccc(C2=NCC(c3cc(C(F)(F)F)cc(C(F)(F)F)c3)(C(F)(F)F)C2)cc1C(F)(F)F (centres unmarked) [2-168]
100%: acaricidal activity [1] | insecticidal activity [2] | insecticidal activity [3] | insecticidal activity [4]

O=C(NCc1ccc(C2=NCC(c3cc(Cl)c(Cl)c(Cl)c3)(C(F)(F)F)C2)cc1Br)C1CC1 (centres unmarked) [2-170]
100%: acaricidal activity [1] | insecticidal activity [2] | insecticidal activity [3] | insecticidal activity [4]

O=C(CC(F)(F)F)NCc1ccc(C2=NCC(c3cc(Cl)c(Cl)c(Cl)c3)(C(F)(F)F)C2)cc1Br (centres unmarked) [2-171]
100%: acaricidal activity [1] | insecticidal activity [2] | insecticidal activity [3] | insecticidal activity [4]

O=C(NCc1ccc(C2=NCC(c3cc(Cl)c(Cl)c(C(F)(F)F)c3)(C(F)(F)F)C2)cc1Br)C1CC1 (centres unmarked) [2-172]
100%: acaricidal activity [1] | insecticidal activity [2] | insecticidal activity [3] | insecticidal activity [4]

O=C(CC(F)(F)F)NCc1ccc(C2=NCC(c3cc(Cl)c(Cl)c(C(F)(F)F)c3)(C(F)(F)F)C2)cc1Br (centres unmarked) [2-173]
100%: acaricidal activity [1] | insecticidal activity [2] | insecticidal activity [3] | insecticidal activity [4]

O=C(NCc1ccc(C2=NCC(c3cc(C(F)(F)F)cc(C(F)(F)F)c3)(C(F)(F)F)C2)cc1Br)C1CC1 (centres unmarked) [2-179]
100%: acaricidal activity [1] | insecticidal activity [2] | insecticidal activity [3] | insecticidal activity [4]

O=C(CC(F)(F)F)NCc1ccc(C2=NCC(c3cc(C(F)(F)F)cc(C(F)(F)F)c3)(C(F)(F)F)C2)cc1Br (centres unmarked) [2-180]
100%: acaricidal activity [1] | insecticidal activity [2] | insecticidal activity [3] | insecticidal activity [4]

CCNC(=O)NCc1ccc(C2=NCC(c3cc(Cl)c(Cl)c(Cl)c3)(C(F)(F)F)C2)cc1Br (centres unmarked) [2-195]
100%: acaricidal activity [1] | insecticidal activity [2] | insecticidal activity [3] | insecticidal activity [4]

CCC(=O)NCc1ccc(C2=NCC(c3cc(Cl)c(Cl)c(C(F)(F)F)c3)(C(F)(F)F)C2)cc1C(F)(F)F (centres unmarked) [2-205]
100%: acaricidal activity [1] | insecticidal activity [2] | insecticidal activity [3] | insecticidal activity [4]

CC(=O)NCc1ccc(C2=NCC(c3cc(Cl)c(Cl)c(Cl)c3)(C(F)(F)F)C2)c2ccccc12 (centres unmarked) [11-5]
100%: acaricidal activity [1] | insecticidal activity [2] | insecticidal activity [3] | insecticidal activity [4]

CCC(=O)NCc1ccc(C2=NCC(c3cc(Cl)c(Cl)c(Cl)c3)(C(F)(F)F)C2)c2ccccc12 (centres unmarked) [11-6]
100%: acaricidal activity [1] | insecticidal activity [2] | insecticidal activity [3] | insecticidal activity [4]

O=C(NCc1ccc(C2=NCC(c3cc(Cl)c(Cl)c(Cl)c3)(C(F)(F)F)C2)c2ccccc12)C1CC1 (centres unmarked) [11-7]
100%: acaricidal activity [1] | insecticidal activity [2] | insecticidal activity [3] | insecticidal activity [4]
